This is an account of results in patent US6432688B1, “Amino alcohol dehydrogenase converts keto alcohol to amino alcohol and amino alcohol to keto alcohol” (Daicel Chemical Industries, Ltd., priority 1999, dated 2002).

Test [1] has as its system amino alcohol dehydrogenase derived from Streptomyces virginiae IFO 12827. The test can be described thus: Substrate specificity, relative activity to various substrates.
Experimental: Based on this reaction, the amino alcohol dehydrogenase activity i n the crude enzyme solution was spectroscopically determined by measuring the change of absorbance at 490 nm. One unit of enzymewas defined as the amount of the enzyme producing 1 μmol formazan in 1 min under the above condition.
For test [2], the system named is amino alcohol dehydrogenase obtained in Example 7. The test can be described thus: Enzyme reaction: conversion of substrates, product analysed by GC, HPLC or GC-MS. It counts as biochemical, Streptomyces virginiae IFO 12827. The settings on record: 0.5 unit enzyme, 25° C., 48 hours; reductive: 10 mM NADH, 0.2M NH4Cl, pH 8.0; oxidative: 10 mM NAD+, pH 9.0. The protocol: The amino alcohol dehydrogenase (0.5 unit) obtained in Example 7 was added to 2 ml of a mixture containing 5 mM hydroxyacetone, 10 mM NADH, 0.2M NH4Cl, 0.1 M Tris-HCl buffer (pH 8.0), and the resulting reaction mixture was incubated at 25° C. for 48 hours. The product was analyzed by gas chromatography with a FID detector (column, TENAX TA (3.2 mm×1 m); injection and detection temperature, […]; N2 flow rate, 50 ml/min; column temperature, gradient from 150 to 180° C. (5° C./min); retained at 180° C. for 10 min). […] The retention time of 2-amino-1-propanol was completely the same as that of the standard compound.
The same reaction system as used in 1) except for using oxalacetic acid as a substrate in place of hydroxyacetone was incubated at 25° C. for 48 hours. The produced amino acid was converted into an o-phthalaldehyde (OPA) derivative by OPA-derivatization method. The derivative was analyzed by high-performance liquid chromatography (column, CAPCELL PAC C18 AG120 (4.6 mm×25 cm, Shiseido); detection, 340 nm; column temperature, 45° C.; mobile phase flow rate, 1 ml/ min; concentration gradient elution, a) 10 mM sodium phosphate buffer (pH 6.8) to b) acetonitrile:10 mM sodium phosphate buffer (pH 6.8) =2:1).
The amino alcohol dehydrogenase (0.5 unit) was added to a mixture of 2 mM 1-phenethylamine, 10 mM NAD^+ and 0.1, M Tris-HCl buffer (pH 9.0), and the resulting reaction solution was incubated at 25° C. for 48 hours. The reaction solution was adjusted to pH 10.0 with NaOH and extracted with an equivalent volume of ethyl acetate.

Test [3] has as its system amino alcohol dehydrogenase derived from Streptomyces virginiae IFO 12827. The test can be described thus: Km values in reductive amination and oxidative deamination. The test is classed as biochemical.
Test [4] concerns L-glutamate dehydrogenase derived from microorganism (Toyobo). As to the kind of experiment: Reactivity of L-glutamate dehydrogenase derived from microorganism. As to conditions: same experiment as Comparison Example 1. It counts as biochemical. The method, then:
(§1) Known NAD(H)-dependent amino acid dehydrogenases reportedly act on only keto acids and amino acids as substrates (Experiments of Biochemistry, Vol. 11, ed. by Japan Society of Biochemistry, Amino acid metabolism and biological amine (I) 193-218, J. Org. Chem. 55, 5567, 1990; Fermentation and Industry 40, 301-311, 1982). […] Reactivity of a commercially available alanine dehydrogenase to amino alcohols was examined. Reaction was performed at 25° C. for several min in a reaction solution containing 1 mM NAD^+, 10 mM of each substrate, 0.1 M Tris-HCl buffer (pH 8.0), and 0.02 unit of alanine dehydrogenase (derived from Bacillus stearothermophilius, Seikagaku Corporation). NADH produced was spectroscopically measured at 340 nm.
The same experiment as Comparison Example 1 was conducted using L-glutamate dehydrogenase derived from microorganism (Toyobo), and that derived from bovine liver (Lifetech Oriental).

For test [5], the target named is T1, alanine dehydrogenase (derived from Bacillus stearothermophilius, Seikagaku Corporation) (Geobacillus stearothermophilus, UniProt P17557).
T1 construct: purchased Seikagaku Corporation
The test can be described thus: Reactivity of commercially available alanine dehydrogenase (NADH at 340 nm). The test is classed as biochemical. As to conditions: 1 mM NAD+, 10 mM substrate, 0.1 M Tris-HCl pH 8.0, 0.02 unit enzyme, 25° C. The method, then: as §1

The test system of test [6] is amino alcohol dehydrogenase derived from Streptomyces virginiae IFO 12827. As to the kind of experiment: Coenzyme dependence. It counts as biochemical.
[7] abbreviates: Substrate (Amines), TABLE 5 printed a fourth time.
Setting [8] is: Substrate (Amines), TABLE 5 printed a second time.
Setting [9] is: Substrate (Amines), TABLE 5 printed a third time.
The mark [10] stands for this setting: Substrate (Amino alcohols), activity to serinol as 100%, TABLE 3.
Where [11] appears, read: Substrate (Amino alcohols), activity to serinol as 100%, TABLE 3 printed a second time.
Setting [12] is: oxidative deamination reaction (pH 9.0, Tris-HCl buffer).
Setting [13] is: reductive amination reaction (pH 7.0, phosphate buffer).

T1 sequence (P17557 whole entry): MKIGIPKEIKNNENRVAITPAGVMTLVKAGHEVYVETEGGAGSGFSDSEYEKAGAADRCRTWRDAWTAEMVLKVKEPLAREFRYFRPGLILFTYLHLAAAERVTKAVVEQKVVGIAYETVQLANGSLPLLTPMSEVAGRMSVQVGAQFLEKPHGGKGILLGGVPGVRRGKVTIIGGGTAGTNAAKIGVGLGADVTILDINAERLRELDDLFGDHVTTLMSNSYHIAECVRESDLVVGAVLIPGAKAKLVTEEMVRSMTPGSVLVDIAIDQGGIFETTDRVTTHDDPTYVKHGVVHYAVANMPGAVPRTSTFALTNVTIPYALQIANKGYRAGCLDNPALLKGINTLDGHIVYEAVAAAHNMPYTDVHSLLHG

With `CCCC(C)N` (centres unmarked) [2-aminopentane], the “Relative activity (%)” value in test [1] (Substrate (Amines), TABLE 5) was found to be 252%; in test [1] (setting [7]), 252%; in test [1] (setting [8]), 252%; in test [1] (setting [9]), 252%.
As for `NCc1ccccc1` [benzylamine], the “Relative activity (%)” value was 134% in test [1] (Substrate (Amines), TABLE 5); 134% in test [1] (setting [7]); 134% in test [1] (setting [8]); 134% in test [1] (setting [9]).
For `NC1CCCCC1O` (centres unmarked) [2-aminocyclohexanol], the “Relative activity (%)” value in test [1] (setting [10]) and in test [1] (setting [11]) was 113% throughout.
With `CC(N)c1ccccc1` (centres unmarked) [1-phenethylamine], the “conversion by the enzyme” value in test [2] was “the enzyme converts amine into ketone”.
With `NC(=O)c1ccc[n+]([C@@H]2O[C@H](COP(=O)([O-])OP(=O)(O)OC[C@H]3O[C@@H](n4cnc5c(N)ncnc54)[C@H](O)[C@@H]3O)[C@@H](O)[C@H]2O)c1` [NAD^+], in test [3] (setting [12]), the Km (as a rule, the concentration of substrate that gives half-maximal velocity) came out at 840 µM.
In the case of `CCC(N)CO` (single isomer, unassigned; (+)) [(+)-2-amino-1-butanol], the “Relative activity (%)” value in test [1] (setting [10]) and in test [1] (setting [11]) was 109% throughout.
With `CC(C)C[C@H](N)CO` [(S)-(+)-leucinol], the “Relative activity (%)” value in test [1] (setting [10]) and in test [1] (setting [11]) was 105% in each case.
As to `CCCCCCN` [n-hexylamine], the “Relative activity (%)” value in test [1] (Substrate (Amines), TABLE 5) was found to be 173%; in test [1] (setting [7]) it was 173%; in test [1] (setting [8]), 173%; in test [1] (setting [9]), 173%.
Regarding `Cl.N` [NH4Cl], the Km in test [3] (setting [13]) stood at 25000 µM.
As to `N[C@@H](CCC(=O)O)C(=O)O` [L-glutamic acid], the “enzyme acts on substrate” value in test [4] was “acted on”.
As for `CCCCN` [n-butylamine], the “Relative activity (%)” value was 170% in test [1] (Substrate (Amines), TABLE 5); 170% in test [1] (setting [7]); 170% in test [1] (setting [8]); 170% in test [1] (setting [9]).
As to `C[C@@H](N)c1ccccc1` [(R)-1-phenethylamine], the “Relative activity (%)” value in test [1] (Substrate (Amines), TABLE 5) was determined as 127%; in test [1] (setting [7]), 127%; in test [1] (setting [8]), 127%; in test [1] (setting [9]) it was 127%.
In the case of `CCCC(N)CO` (racemic) [DL-2-amino-1-pentanol], the “Relative activity (%)” value in test [1] (setting [10]) and in test [1] (setting [11]) was 103% throughout.
`C[C@H](N)C(=O)O` [L-alanine]: the “enzyme acts on substrate” value in test [5] was “acted on”.
Regarding `CC(N)CCc1ccccc1` (centres unmarked) [1-methyl-3-phenylpropylamine], the “Relative activity (%)” value is 152% in test [1] (Substrate (Amines), TABLE 5); 152% in test [1] (setting [7]); 152% in test [1] (setting [8]); 152% in test [1] (setting [9]).
As to `CCCCCCCCN` [n-octylamine], the “Relative activity (%)” value in test [1] (Substrate (Amines), TABLE 5) is listed as 114%; in test [1] (setting [7]), 114%; in test [1] (setting [8]), 114%; in test [1] (setting [9]), 114%.
`CC(C)(N)CO` [2-amino-2-methyl-1-propanol]: the “Relative activity (%)” value in test [1] (setting [10]) and in test [1] (setting [11]) was 115% throughout.
In the case of `N[C@H](CO)Cc1ccccc1` [(S)-(−)-2-amino-3-phenyl-1-propanol], the “Relative activity (%)” value in test [1] (setting [10]) and in test [1] (setting [11]) was 120% in each case.
In the case of `Nc1ncccc1O` [2-amino-3-hydroxypyridine], the “Relative activity (%)” value in test [1] (setting [10]) and in test [1] (setting [11]) was 136% each time.
Consider `NC(CO)CO` [serinol], for which, in test [3] (setting [12]), the Km is 4000 µM. Also, the “Relative activity (%)” value in test [1] (setting [10]) and in test [1] (setting [11]) was 100% in each case.
For the compound `CCCCC[C@@H](C)N` [(R)-2-aminoheptane], the “Relative activity (%)” value in test [1] (Substrate (Amines), TABLE 5) is recorded as 91%; in test [1] (setting [7]) it was 91%; in test [1] (setting [8]), 91%; in test [1] (setting [9]) it was 91%.
For the compound `CSCC[C@H](N)CO` [L-(−)-methioninol], the “Relative activity (%)” value in test [1] (setting [10]) and in test [1] (setting [11]) was 85% each time.
With `CC[C@H](C)[C@H](N)CO` [isoleucinol], the “Relative activity (%)” value in test [1] (setting [10]) and in test [1] (setting [11]) was 113% in each case.
NAD(H): the “use as coenzyme / electron acceptor” value in test [6] is on record as “dependent”.
Still for that read-out and setting: with `COS(=O)(=O)[O-].C[n+]1c2ccccc2nc2ccccc21` [PMS, phenazinementasulfate, reference compound] the entry was “does not use”.
As for `CC[C@@H](C)N` [(R)-2-aminobutane], the “Relative activity (%)” value is listed as 127% in test [1] (Substrate (Amines), TABLE 5); 127% in test [1] (setting [7]); 127% in test [1] (setting [8]); 127% in test [1] (setting [9]).
In the case of NADP(H), the “use as coenzyme / electron acceptor” value in test [6] was “does not use”.
Regarding `CCC(N)CC` [3-aminopentane], the “Relative activity (%)” value in test [1] (Substrate (Amines), TABLE 5) stood at 270%; in test [1] (setting [7]) it was 270%; in test [1] (setting [8]), 270%; in test [1] (setting [9]), 270%.
Take `CC(=O)CO` [hydroxyacetone]: the “conversion by the enzyme” value in test [2] was “production of 2-amino-1-propanol was detected”.
As to NADH, in test [3] (setting [13]), the Km stood at 22 µM.
With `CC(C)[C@H](N)CO` [(S)-(+)-2-amino-3-methyl-1-butanol], the “Relative activity (%)” value in test [1] (setting [10]) and in test [1] (setting [11]) was 43% throughout.
With `O=C(O)CC(=O)C(=O)O` [oxalacetic acid], the “conversion by the enzyme” value in test [2] is “peak of the product, aspartic acid was observed”.
